Assays:
human Factor XIa = human Factor XIa (Homo sapiens (Human), UniProt P03951); experiment: Factor XIa Assay (fluorogenic substrate GPR-AFC); format: biochemical; conditions: Factor XIa (FXIa)
Human plasma kallikrein = Human plasma kallikrein (Homo sapiens (Human), UniProt P03952); experiment: Kallikrein Assay (fluorogenic substrate Acetyl-K-P-R-AFC); format: biochemical; conditions: Plasma Kallikrein (PKal)
Method in brief: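 Ki is derived from IC50 with the Cheng-Prusoff equation, and IC50 from the inflection point of a four-parameter logistic curve. The rate of AFC release is read with 0.5 nM purified enzyme and […] substrate at room temperature or 37 °C.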

Sequence of Human plasma kallikrein (P03952 391-638): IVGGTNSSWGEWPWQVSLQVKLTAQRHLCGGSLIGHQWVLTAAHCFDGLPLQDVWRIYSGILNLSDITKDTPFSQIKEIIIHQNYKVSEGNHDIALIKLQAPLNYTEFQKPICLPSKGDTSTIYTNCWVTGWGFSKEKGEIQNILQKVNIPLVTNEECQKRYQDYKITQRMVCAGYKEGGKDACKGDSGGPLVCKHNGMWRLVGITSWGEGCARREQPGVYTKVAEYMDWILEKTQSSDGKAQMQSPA
Sequence of Human plasma kallikrein (P03952 20-390 partner): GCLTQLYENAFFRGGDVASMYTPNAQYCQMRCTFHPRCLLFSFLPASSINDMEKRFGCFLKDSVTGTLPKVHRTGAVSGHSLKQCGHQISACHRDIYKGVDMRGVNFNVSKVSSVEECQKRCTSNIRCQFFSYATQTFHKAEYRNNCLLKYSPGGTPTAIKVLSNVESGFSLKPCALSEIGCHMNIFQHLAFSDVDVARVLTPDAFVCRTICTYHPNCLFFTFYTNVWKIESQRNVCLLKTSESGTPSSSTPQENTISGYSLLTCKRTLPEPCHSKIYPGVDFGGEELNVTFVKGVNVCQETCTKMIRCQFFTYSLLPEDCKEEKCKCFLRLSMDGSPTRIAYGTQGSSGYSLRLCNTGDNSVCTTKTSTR
Sequence of human Factor XIa (P03951 388-625 limits assumed): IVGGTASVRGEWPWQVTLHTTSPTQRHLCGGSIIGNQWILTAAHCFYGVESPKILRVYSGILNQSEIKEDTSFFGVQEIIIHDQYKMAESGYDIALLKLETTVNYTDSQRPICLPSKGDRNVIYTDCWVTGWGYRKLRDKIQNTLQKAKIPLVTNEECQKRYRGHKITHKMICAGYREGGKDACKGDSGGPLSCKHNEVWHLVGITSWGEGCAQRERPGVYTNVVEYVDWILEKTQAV
Sequence of human Factor XIa (P03951 19-387 partner limits assumed): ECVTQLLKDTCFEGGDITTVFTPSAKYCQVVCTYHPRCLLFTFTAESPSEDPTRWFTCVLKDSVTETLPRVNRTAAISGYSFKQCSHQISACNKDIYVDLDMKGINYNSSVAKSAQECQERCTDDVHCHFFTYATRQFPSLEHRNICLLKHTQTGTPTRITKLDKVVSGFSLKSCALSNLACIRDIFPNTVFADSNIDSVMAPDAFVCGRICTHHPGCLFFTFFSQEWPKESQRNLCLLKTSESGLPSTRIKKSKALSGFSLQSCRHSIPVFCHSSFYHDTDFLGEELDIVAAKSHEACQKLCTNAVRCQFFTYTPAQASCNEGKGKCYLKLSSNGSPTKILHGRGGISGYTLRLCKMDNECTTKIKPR

Compound | IC50 (human Factor XIa) [nM] | IC50 (Human plasma kallikrein) [nM]
Cc1nc(N2C[C@H]3C[C@H]3C2=O)ncc1[C@H](CO)n1cc(NC(=O)c2cncc(-c3c(C(F)F)ccc(Cl)c3F)n2)cn1 [Example 160, 6-(3-Chloro-6-(difluoromethyl)-2-fluorophenyl)-N-(1-((R)-2-hydroxy-1-(4-methyl-2-((1R,5S)-2-oxo-3-azabicyclo[3.1.0]hexan-3-yl)pyrimidin-5-yl)ethyl)-1H-pyrazol-4-yl)pyrazine-2-carboxamide] | > 10000 | 249
C[C@H](c1cnc(N2C[C@H]3C[C@H]3C2=O)nc1N)n1cc(NC(=O)c2cncc(-c3c(C(F)F)ccc(Cl)c3F)n2)cn1 [Example 170, N-(1-((R)-1-(4-Amino-2-((1R,5S)-2-oxo-3-azabicvclo[3.1.0]hexan-3-yl)pyrimidin-5-yl)ethyl)-1H-pyrazol-4-yl)-6-(3-chloro-6-(difluoromethyl)-2-fluorophenyl)pyrazine-2-carboxamide] | > 10000 | 20.7
C[C@@H](c1cnc(N2C[C@H]3C[C@H]3C2=O)nc1N)n1cc(NC(=O)c2cncc(-c3c(C(F)F)ccc(Cl)c3F)n2)cn1 [Example 171, N-(1-((S)-1-(4-Amino-2-((1R,5S)-2-oxo-3-azabicyclo[3.1.0]hexan-3-yl)pyrimidin-5-yl)ethyl)-1H-pyrazol-4-yl)-6-(3-chloro-6-(difluoromethyl)-2-fluorophenyl)pyrazine-2-carboxamide] | > 10000 | 713
C[C@@H](c1cnc(N2C[C@H]3C[C@H]3C2=O)nc1)n1cc(NC(=O)c2cncc(-c3c(C(F)F)ccc(Cl)c3F)n2)cn1 [Example 172, 6-(3-Chloro-6-(difluoromethyl)-2-fluorophenyl)-N-(1-((S)-1-(2-((1R,5S)-2-oxo-3-azabicyclo[3.1.0]hexan-3-yl)pyrimidin-5-yl)ethyl)-1H-pyrazol-4-yl)pyrazine-2-carboxamide] | 6730 | 6.4
C[C@@H](c1cnc(N2C[C@H]3C[C@H]3C2=O)nc1)n1cc(NC(=O)c2nc(-c3c(C(F)F)ccc(Cl)c3F)cnc2C(F)F)cn1 [Example 174, 6-(3-Chloro-6-(difluoromethyl)-2-fluorophenyl)-3-(difluoromethyl)-N-(1-((S)-1-(2-((1R,5S)-2-oxo-3-azabicyclo[3.1.0]hexan-3-yl)pyrimidin-5-yl)ethyl)-1H-pyrazol-4-yl)pyrazine-2-carboxamide] | 9350 | 6.5
COCc1ncc(-c2c(C(F)F)ccc(Cl)c2F)nc1C(=O)Nc1cnn([C@@H](C)c2cnc(N3C[C@H]4C[C@H]4C3=O)nc2)c1 [Example 175, 6-(3-Chloro-6-(difluoromethyl)-2-fluorophenyl)-3-(methoxymethy-((S)-1-(2-((1R,5S)-2-oxo-3-azabicyclo[3.1.0]hexan-3-yl)pyrimidin-5-yl)ethyl)-1H-pyrazol-4-yl)pyrazine-2-carboxamide] | 3680 | 3
C[C@@H](c1cnc(N2C[C@H]3C[C@H]3C2=O)nc1)n1cc(NC(=O)c2nc(-c3c(C(F)F)ccc(Cl)c3F)cnc2CC(C)(C)O)cn1 [Example 180] | 4950 | 7.7
C[C@@H](c1cnc(N2C[C@H]3C[C@H]3C2=O)nc1)n1cc(NC(=O)c2nc(-c3c(C(F)F)ccc(Cl)c3F)cnc2C(C)(C)O)cn1 [Example 181, 6-(3-Chloro-6-(difluoromethyl)-2-fluorophenyl)-3-(2-hydroxypropan-2-yl)-N-(1-((S)-1-(2-((1R,5S)-2-oxo-3-azabicyclo[3.1.0]hexan-3-yl)pyrimidin-5-yl)ethyl)-1H-pyrazol-4-yl)pyrazine-2-carboxamide] | > 10000 | 37.1
[2H]C([2H])(O)c1ncc(-c2c(C(F)F)ccc(Cl)c2F)nc1C(=O)Nc1cnn([C@@H](C)c2cnc(N3C[C@H]4C[C@H]4C3=O)nc2)c1 [Example 182, 6-(3-Chloro-6-(difluoromethyl)-2-fluorophenyl)-3-(hydroxymethyl-d2)-N-(1-((S)-1-(2-((1R,5S)-2-oxo-3-azabicyclo[3.1.0]hexan-3-yl)pyrimidin-5-yl)ethyl)-1H-pyrazol-4-yl)pyrazine-2-carboxamide] | 572 | 0.7
Cc1nc(N2C[C@H]3C[C@H]3C2=O)ncc1Cn1cc(NC(=O)c2nc(-c3c(C(F)F)ccc(Cl)c3F)cnc2C)nn1 [Example 183, 6-(3-Chloro-6-(difluoromethyl)-2-fluorophenyl)-3-methyl-N-(1-((4-methyl-2-((1R,5S)-2-oxo-3-azabicyclo[3.1.0]hexan-3-yl)pyrimidin-5-yl)methyl)-1H-1,2,3-triazol-4-yl)pyrazine-2-carboxamide] | > 10000 | 30.6
Cc1ncc(-c2c(C(F)F)ccc(Cl)c2F)nc1C(=O)Nc1cn(Cc2cnc(N3C[C@H]4C[C@H]4C3=O)c(C)n2)nn1 [Example 185, 6-(3-Chloro-6-(difluoromethyl)-2-fluorophenyl)-3-methyl-N-(1-((6-methyl-5-((1R,5S)-2-oxo-3-azabicyclo[3.1.0]hexan-3-yl)pyrazin-2-yl)methyl)-1H-1,2,3-triazol-4-yl)pyrazine-2-carboxamide] | 3180 | 2.4
Cc1nc(N2C[C@H]3C[C@H]3C2=O)ncc1C1(n2cc(NC(=O)c3nc(-c4c(C(F)F)ccc(Cl)c4F)cnc3C)cn2)CCC1 [Example 188, 6-(3-Chloro-6-(difluoromethyl)-2-fluorophenyl)-3-methyl-N-(1-(1-(4-methyl-2-((1R,5S)-2-oxo-3-azabicyclo[3.1.0]hexan-3-yl)pyrimidin-5-yl)cyclobutyl)-1H-pyrazol-4-yl)pyrazine-2-carboxamide] | 3110 | 6.5
Cc1ncc(-c2c(C(F)F)ccc(Cl)c2F)nc1C(=O)Nc1cnn(Cc2cnc(N3C[C@H]4C[C@H]4C3=O)c(N)c2)c1 [Example 191, N-(1-((5-Amino-6-((1R,5S)-2-oxo-3-azabicyclo[3.1.0]hexan-3-yl)pyridin-3-yl)methyl)-1H-pyrazol-4-yl)-6-(3-chloro-6-(difluoromethyl)-2-fluorophenyl)-3-methylpyrazine-2-carboxamide] | 111 | 1.1
C[C@@H](c1cnc(N2C[C@H]3C[C@H]3C2=O)nc1)n1cc(NC(=O)c2nc(-c3c(C(F)F)ccc(Cl)c3F)cnc2COC(C)(C)C)cn1 [Example 192, 3-(tert-Butoxymethyl)-6-(3-chloro-6-(difluoromethyl)-2-fluorophenyl)-N-(1-((S)-1-(2-((1R,5S)-2-oxo-3-azabicyclo[3.1.0]hexan-3-yl)pyrimidin-5-yl)ethyl)-1H-pyrazol-4-yl)pyrazine-2-carboxamide] | 6830 | 4.4

The next lines start with the values.

IC50 (human Factor XIa) [nM] | IC50 (Human plasma kallikrein) [nM] | Compound
7730 | 8.1 | Cc1nc(N2C[C@H]3C[C@H]3C2=O)ncc1Cn1ncc(NC(=O)c2nc(-c3c(C(F)F)ccc(Cl)c3F)cnc2C)n1 [Example 184, 6-(3-Chloro-6-(difluoromethyl)-2-fluorophenyl)-3-methyl-N-(2-((4-methyl-2-((1R,5S)-2-oxo-3-azabicyclo[3.1.0]hexan-3-yl)pyrimidin-5-yl)methyl)-2H-1,2,3-triazol-4-yl)pyrazine-2-carboxamide]
1380 | 1.4 | Cc1ncc(-c2c(C(F)F)ccc(Cl)c2F)nc1C(=O)Nc1cnn(Cc2cnc(N3C[C@H]4C[C@H]4C3=O)c(C)n2)n1 [Example 186, 6-(3-Chloro-6-(difluoromethyl)-2-fluorophenyl)-3-methyl-N-(2-((6-methyl-5-((1R,5S)-2-oxo-3-azabicyclo[3.1.0]hexan-3-yl)pyrazin-2-yl)methyl)-2H-1,2,3-triazol-4-yl)pyrazine-2-carboxamide]
5670 | 4.3 | Cc1cc(Cn2ncc(NC(=O)c3nc(-c4c(C(F)F)ccc(Cl)c4F)cnc3C)n2)cnc1N1C[C@H]2C[C@H]2C1=O [Example 187, 6-(3-Chloro-6-(difluoromethyl)-2-fluorophenyl)-3-methyl-N-(2-((5-methyl-6-((1R,5S)-2-oxo-3-azabicyclo[3.1.0]hexan-3-yl)pyridin-3-yl)methyl)-2H-1,2,3-triazol-4-yl)pyrazine-2-carboxamide]
667 | 1.3 | Cc1ncc(-c2c(C(F)F)ccc(Cl)c2F)nc1C(=O)Nc1cnn([C@@H](C)c2cnc(N3C[C@H]4C[C@H]4C3=O)c(N)c2)c1 [Example 189]
1040 | 0.7 | Cc1ncc(-c2c(C(F)F)ccc(Cl)c2F)nc1C(=O)Nc1cnn([C@H](C)c2cnc(N3C[C@H]4C[C@H]4C3=O)c(N)c2)c1 [Example 190]
441 | 0.4 | C[C@@H](c1cnc(N2C[C@H]3C[C@H]3C2=O)nc1)n1cc(NC(=O)c2nc(-c3c(C(F)F)ccc(Cl)c3F)cnc2CO)cn1 [Example 193]
3280 | 8.6 | Cc1nc(N2CCN(C)C2=O)ncc1[C@H](C)n1cc(NC(=O)c2nc(-c3c(C(F)F)ccc(Cl)c3F)cnc2C)cn1 [Example 207, (S)-6-(3-Chloro-6-(difluoromethyl)-2-fluorophenyl)-3-methyl-N-(1-(1-(4-methyl-2-(3-methyl-2-oxoimidazolidin-1-yl)pyrimidin-5-yl)ethyl)-1H-pyrazol-4-yl)pyrazine-2-carboxamide]
> 10000 | 7.8 | Cc1ncc(-c2c(C(F)F)ccc(Cl)c2F)nc1C(=O)Nc1cnn(Cc2ncc(N3C[C@H]4C[C@H]4C3=O)c(C)c2F)c1 [Example 215, 6-(3-Chloro-6-(difluoromethyl)-2-fluorophenyl)-N-(1-((3-fluoro-4-methyl-5-((1R,5S)-2-oxo-3-azabicyclo[3.1.0]hexan-3-yl)pyridin-2-yl)methyl)-1H-pyrazol-4-yl)-3-methylpyrazine-2-carboxamide]
8420 | 2.8 | Cc1ncc(-c2c(C(F)F)ccc(Cl)c2F)nc1C(=O)Nc1cnn([C@H](C)c2cnc(N3C[C@H]4C[C@H]4C3=O)c(O)c2)c1 [Example 216, 6-(3-Chloro-6-(difluoromethyl)-2-fluorophenyl)-N-(1-((R)-1-(5-hydroxy-6-((1R,5S)-2-oxo-3-azabicyclo[3.1.0]hexan-3-yl)pyridin-3-yl)ethyl)-1H-pyrazol-4-yl)-3-methylpyrazine-2-carboxamide]

Reference: patent US20230286958A1, “PLASMA KALLIKREIN INHIBITORS” (Merck Sharp & Dohme LLC, priority 2020, published 2023)
